Results: patent US10959968B2, “Methods for treating c-Met-dependent cancers” (Board of Supervisors of Louisiana State University and …, priority 2016, dated 2021)

Key:
ROS1 = ROS1 (Homo sapiens, UniProt P08922); experiment: SelectScreen Kinase Profiling; assay type: biochemical; details: read-out: Mean inhibition at 10 μM of HVS (%)
Experimental: (§1) HVS was evaluated against a cross-section of tyrosine kinases (TKs), which are known to be structurally related and oncogenically relevant to c-Met, in order to understand its selectivity profile. A panel of 15 TKs was selected for biochemical analysis through the SelectScreen Kinase Profiling Service (Invitrogen, CA). In this assay, the results are expressed as % inhibition at a 10 μM dose (see Table I below).
as §1, with “Table I (Above) HVS” for “HVS”, “profile (Table 1).” for “profile.”, “(Table 1).” for “(see Table I below).”

FGFR1 = FGFR1 (Homo sapiens, UniProt P11362); experiment: SelectScreen Kinase Profiling; assay type: biochemical; details: read-out: Mean inhibition at 10 μM of HVS (%)
Experimental: as §1
as §1, with “Table I (Above) HVS” for “HVS”, “profile (Table 1).” for “profile.”, “(Table 1).” for “(see Table I below).”

PDGFRβ = PDGFRβ (Homo sapiens, UniProt P09619); experiment: SelectScreen Kinase Profiling; assay type: biochemical; details: read-out: Mean inhibition at 10 μM of HVS (%)
Experimental: as §1
as §1, with “Table I (Above) HVS” for “HVS”, “profile (Table 1).” for “profile.”, “(Table 1).” for “(see Table I below).”

EGFR (ERbB1) = EGFR (ERbB1) (Homo sapiens, UniProt P00533); experiment: SelectScreen Kinase Profiling; assay type: biochemical; details: read-out: Mean inhibition at 10 μM of HVS (%)
Experimental: as §1
as §1, with “Table I (Above) HVS” for “HVS”, “profile (Table 1).” for “profile.”, “(Table 1).” for “(see Table I below).”

KDR (VEGFR2) = KDR (VEGFR2) (Homo sapiens, UniProt P35968); experiment: SelectScreen Kinase Profiling; assay type: biochemical; details: read-out: Mean inhibition at 10 μM of HVS (%)
Experimental: as §1
as §1, with “Table I (Above) HVS” for “HVS”, “profile (Table 1).” for “profile.”, “(Table 1).” for “(see Table I below).”

ALK = ALK (Homo sapiens, UniProt Q9UM73); experiment: SelectScreen Kinase Profiling; assay type: biochemical; details: read-out: Mean inhibition at 10 μM of HVS (%)
Experimental: as §1
as §1, with “Table I (Above) HVS” for “HVS”, “profile (Table 1).” for “profile.”, “(Table 1).” for “(see Table I below).”

HER4 (ERbB4) = HER4 (ERbB4) (Homo sapiens, UniProt Q15303); experiment: SelectScreen Kinase Profiling; assay type: biochemical; details: read-out: Mean inhibition at 10 μM of HVS (%)
Experimental: as §1
as §1, with “Table I (Above) HVS” for “HVS”, “profile (Table 1).” for “profile.”, “(Table 1).” for “(see Table I below).”

FLT1 (VEGFR1) = FLT1 (VEGFR1) (Homo sapiens, UniProt P17948); experiment: SelectScreen Kinase Profiling; assay type: biochemical; details: read-out: Mean inhibition at 10 μM of HVS (%)
Experimental: as §1
as §1, with “Table I (Above) HVS” for “HVS”, “profile (Table 1).” for “profile.”, “(Table 1).” for “(see Table I below).”

HER2 (ERbB2) = HER2 (ERbB2) (Homo sapiens, UniProt P04626); experiment: SelectScreen Kinase Profiling; assay type: biochemical; details: read-out: Mean inhibition at 10 μM of HVS (%)
Experimental: as §1
as §1, with “Table I (Above) HVS” for “HVS”, “profile (Table 1).” for “profile.”, “(Table 1).” for “(see Table I below).”

KIT = KIT (Homo sapiens, UniProt P10721); experiment: SelectScreen Kinase Profiling; assay type: biochemical; details: read-out: Mean inhibition at 10 μM of HVS (%)
Experimental: as §1
as §1, with “Table I (Above) HVS” for “HVS”, “profile (Table 1).” for “profile.”, “(Table 1).” for “(see Table I below).”

IGF1R = IGF1R (Homo sapiens, UniProt P08069); experiment: SelectScreen Kinase Profiling; assay type: biochemical
Experimental: as §1
as §1, with “Table I (Above) HVS” for “HVS”, “profile (Table 1).” for “profile.”, “(Table 1).” for “(see Table I below).”

[1] = tested on: MDA-MB-231 breast cancer cells; experiment: LDH cytotoxicity assay; assay type: cell-based, human; details: MDA-MB-231 cells; 50 μM and 100 μM
Experimental: FIG. 3. (A) Effect of HVS treatment on HGF-stimulated growth of Met-dependent MDA-MB-231, MDA-MB-468, MCF-7. and BT-474 breast cancer cells after 72 h treatment period, compared to DMSO as vehicle control. Viable cell count was determined using MTT assay. Vertical bars indicate the mean cell count±SEM of N=3 in each treatment group; (−)-oleocanthal was used as a positive control at 20 μM. (B) Effect of HVS treatment on HGF-stimulated growth of Met-independent T-47D breast cancer cells after 72 h treatment period. Viable cell count was determined using MTT assay. Vertical bars indicate the mean cell count±SEM of N=3 in each treatment group. […] Triton X-100 was used as a positive control to cause the breakdown of all the cells and induce the total possible LDH release. (D) Effects of HVS treatment on the viability of non-tumorigenic human MCF10A mammary epithelial cells after a 24 h treatment period, compared to DMSO as vehicle control. (E) As in panel (A) but without HGF. […] Viable cell count was determined using MTT assay. Vertical bars indicate the mean cell count±SEM of N=3 in each treatment group; doxorubicin was used as a positive control at 10 μM dose. *P<0.05 as compared with vehicle treated control.
[…]. Selection of the aforementioned breast cancer cells was based on their phenotypes. […]

[2] = tested on: MDA-MB-231 breast cancer cells; experiment: Western blot of c-Met downstream mitogenic and FAK/Brk/paxillin/Rac1 signaling; assay type: cell-based, human
Experimental: FIG. 5. Effects of HVS treatment on c-Met downstream mitogenic and FAK/Brk/paxillin/Rac1 signaling pathways in human MDA-MB-231 breast cancer cells after a treatment period of 72 h. (A) Western Blot analysis showing HVS treatment effects on c-Met downstream mitogenic signaling molecules, Akt and MAPK, using different treatment doses, compared to the vehicle-treated control group. (B) Western Blot analysis showing HVS treatment effects on FAK/Brk/Paxillin/Rac1 signaling pathway using different treatment doses, compared to the vehicle-treated control group. The visualization of β-tubulin was used as a loading control. Representative Western Blots from each experiment are shown, N=3.
On the other hand, HVS had little or no effects on the total levels of FAK, Brk, paxillin, and Rac1 in treated cells. Exposure to antiproliferative concentrations of 8 blocked HGF-induced phosphorylation and activation of Akt and MAPK in MDA-MB-231 mammary cancer cells (FIG. 5). Activation of c-Met prevents apoptosis and maintains cancer cell survival through activation of PI3K and subsequent Akt-NFκB activation.

Sequence of IGF1R (P08069 31-1367): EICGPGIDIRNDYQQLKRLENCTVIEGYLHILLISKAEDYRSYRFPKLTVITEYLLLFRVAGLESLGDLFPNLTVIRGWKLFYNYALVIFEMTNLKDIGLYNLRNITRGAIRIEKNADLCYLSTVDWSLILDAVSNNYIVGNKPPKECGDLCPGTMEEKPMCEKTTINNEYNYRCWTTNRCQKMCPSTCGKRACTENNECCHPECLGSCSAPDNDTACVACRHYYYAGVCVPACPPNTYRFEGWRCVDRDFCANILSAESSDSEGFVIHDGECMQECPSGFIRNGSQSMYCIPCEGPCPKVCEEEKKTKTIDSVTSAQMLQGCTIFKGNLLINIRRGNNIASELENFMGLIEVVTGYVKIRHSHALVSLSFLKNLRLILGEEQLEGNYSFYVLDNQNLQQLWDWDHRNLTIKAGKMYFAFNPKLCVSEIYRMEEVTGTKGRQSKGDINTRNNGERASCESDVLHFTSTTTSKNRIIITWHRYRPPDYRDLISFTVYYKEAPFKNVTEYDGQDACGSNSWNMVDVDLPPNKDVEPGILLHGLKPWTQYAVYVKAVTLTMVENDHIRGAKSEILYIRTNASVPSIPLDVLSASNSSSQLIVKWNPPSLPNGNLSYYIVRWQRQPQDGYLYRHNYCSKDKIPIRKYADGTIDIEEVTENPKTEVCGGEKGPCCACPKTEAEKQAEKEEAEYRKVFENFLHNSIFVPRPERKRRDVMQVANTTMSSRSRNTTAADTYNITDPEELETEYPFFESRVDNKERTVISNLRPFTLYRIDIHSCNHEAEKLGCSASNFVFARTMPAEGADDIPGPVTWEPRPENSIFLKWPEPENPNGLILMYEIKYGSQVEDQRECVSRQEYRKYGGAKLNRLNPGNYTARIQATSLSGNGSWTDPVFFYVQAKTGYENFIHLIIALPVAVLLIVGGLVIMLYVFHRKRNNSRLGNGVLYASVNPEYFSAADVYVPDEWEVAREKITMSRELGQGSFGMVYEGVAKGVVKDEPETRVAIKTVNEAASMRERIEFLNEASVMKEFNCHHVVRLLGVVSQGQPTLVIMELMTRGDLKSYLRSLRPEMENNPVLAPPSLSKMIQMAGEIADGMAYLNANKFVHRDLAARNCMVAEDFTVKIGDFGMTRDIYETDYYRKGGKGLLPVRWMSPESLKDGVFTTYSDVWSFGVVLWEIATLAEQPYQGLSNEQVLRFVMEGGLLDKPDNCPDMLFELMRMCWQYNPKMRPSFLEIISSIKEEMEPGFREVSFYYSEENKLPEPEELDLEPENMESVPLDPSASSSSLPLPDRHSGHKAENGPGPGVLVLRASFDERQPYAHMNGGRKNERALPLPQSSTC
Sequence of FLT1 (VEGFR1) (P17948 27-1338): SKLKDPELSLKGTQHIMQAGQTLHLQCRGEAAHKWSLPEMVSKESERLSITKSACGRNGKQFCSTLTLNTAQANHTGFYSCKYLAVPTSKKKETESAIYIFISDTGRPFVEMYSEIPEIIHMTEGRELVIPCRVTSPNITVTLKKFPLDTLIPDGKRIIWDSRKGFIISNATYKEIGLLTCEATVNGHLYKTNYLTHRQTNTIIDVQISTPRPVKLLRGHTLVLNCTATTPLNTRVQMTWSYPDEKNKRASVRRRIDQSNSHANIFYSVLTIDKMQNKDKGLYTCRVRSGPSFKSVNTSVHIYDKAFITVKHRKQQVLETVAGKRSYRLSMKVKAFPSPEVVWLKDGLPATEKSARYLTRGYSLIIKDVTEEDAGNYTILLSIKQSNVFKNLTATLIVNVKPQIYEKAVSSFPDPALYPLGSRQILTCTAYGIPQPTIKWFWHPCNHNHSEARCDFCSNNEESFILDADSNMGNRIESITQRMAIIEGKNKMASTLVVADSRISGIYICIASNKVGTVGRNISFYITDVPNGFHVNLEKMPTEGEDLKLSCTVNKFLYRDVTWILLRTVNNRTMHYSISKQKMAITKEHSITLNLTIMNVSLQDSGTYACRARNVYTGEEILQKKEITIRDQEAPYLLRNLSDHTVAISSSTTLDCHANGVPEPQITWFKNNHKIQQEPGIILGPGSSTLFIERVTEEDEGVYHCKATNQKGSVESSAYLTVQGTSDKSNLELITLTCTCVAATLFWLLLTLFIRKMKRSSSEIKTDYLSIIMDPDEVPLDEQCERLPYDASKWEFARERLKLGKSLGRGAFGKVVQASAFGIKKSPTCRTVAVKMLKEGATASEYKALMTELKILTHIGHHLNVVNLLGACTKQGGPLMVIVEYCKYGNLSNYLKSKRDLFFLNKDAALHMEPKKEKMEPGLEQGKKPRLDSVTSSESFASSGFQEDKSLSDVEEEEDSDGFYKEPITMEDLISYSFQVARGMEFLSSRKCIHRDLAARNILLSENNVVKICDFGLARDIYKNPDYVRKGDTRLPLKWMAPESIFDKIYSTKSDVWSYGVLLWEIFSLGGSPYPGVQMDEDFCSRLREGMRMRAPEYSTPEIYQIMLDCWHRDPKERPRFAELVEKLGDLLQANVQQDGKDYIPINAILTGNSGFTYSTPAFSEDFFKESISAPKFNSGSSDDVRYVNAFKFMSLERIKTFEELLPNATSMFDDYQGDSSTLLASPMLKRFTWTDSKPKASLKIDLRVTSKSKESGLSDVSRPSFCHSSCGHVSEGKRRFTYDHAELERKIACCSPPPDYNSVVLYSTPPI
Sequence of EGFR (ERbB1) (P00533 25-1210): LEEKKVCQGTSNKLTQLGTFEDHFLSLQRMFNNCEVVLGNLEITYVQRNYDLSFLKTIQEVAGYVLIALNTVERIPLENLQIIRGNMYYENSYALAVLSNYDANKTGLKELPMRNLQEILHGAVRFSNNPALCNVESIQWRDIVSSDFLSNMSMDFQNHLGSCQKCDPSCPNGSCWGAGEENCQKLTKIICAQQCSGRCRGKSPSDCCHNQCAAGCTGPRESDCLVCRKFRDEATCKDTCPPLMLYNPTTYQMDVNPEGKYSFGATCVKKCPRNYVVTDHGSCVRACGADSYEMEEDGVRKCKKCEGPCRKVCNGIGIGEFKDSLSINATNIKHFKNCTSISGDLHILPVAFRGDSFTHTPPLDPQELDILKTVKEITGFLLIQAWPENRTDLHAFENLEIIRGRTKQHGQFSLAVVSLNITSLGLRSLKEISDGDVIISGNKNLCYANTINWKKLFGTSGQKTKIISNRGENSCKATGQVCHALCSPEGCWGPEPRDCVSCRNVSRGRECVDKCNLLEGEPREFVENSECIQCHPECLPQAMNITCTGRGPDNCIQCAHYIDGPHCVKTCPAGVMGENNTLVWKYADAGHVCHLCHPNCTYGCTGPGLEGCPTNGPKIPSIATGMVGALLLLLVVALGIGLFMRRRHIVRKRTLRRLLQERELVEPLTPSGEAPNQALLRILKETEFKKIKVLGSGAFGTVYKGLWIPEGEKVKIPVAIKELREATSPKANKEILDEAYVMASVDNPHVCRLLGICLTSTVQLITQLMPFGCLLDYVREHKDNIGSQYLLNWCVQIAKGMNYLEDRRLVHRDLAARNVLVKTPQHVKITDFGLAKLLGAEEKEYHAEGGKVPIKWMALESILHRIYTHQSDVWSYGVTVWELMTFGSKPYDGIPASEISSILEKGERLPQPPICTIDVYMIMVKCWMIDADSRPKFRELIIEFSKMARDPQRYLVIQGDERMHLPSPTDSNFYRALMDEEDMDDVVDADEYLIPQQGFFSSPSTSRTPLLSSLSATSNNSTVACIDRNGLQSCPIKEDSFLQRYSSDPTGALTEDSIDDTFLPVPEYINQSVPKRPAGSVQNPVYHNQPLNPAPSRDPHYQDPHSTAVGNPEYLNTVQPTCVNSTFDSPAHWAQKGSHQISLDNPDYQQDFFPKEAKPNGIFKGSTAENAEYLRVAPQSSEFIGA
Sequence of HER4 (ERbB4) (Q15303 26-1308): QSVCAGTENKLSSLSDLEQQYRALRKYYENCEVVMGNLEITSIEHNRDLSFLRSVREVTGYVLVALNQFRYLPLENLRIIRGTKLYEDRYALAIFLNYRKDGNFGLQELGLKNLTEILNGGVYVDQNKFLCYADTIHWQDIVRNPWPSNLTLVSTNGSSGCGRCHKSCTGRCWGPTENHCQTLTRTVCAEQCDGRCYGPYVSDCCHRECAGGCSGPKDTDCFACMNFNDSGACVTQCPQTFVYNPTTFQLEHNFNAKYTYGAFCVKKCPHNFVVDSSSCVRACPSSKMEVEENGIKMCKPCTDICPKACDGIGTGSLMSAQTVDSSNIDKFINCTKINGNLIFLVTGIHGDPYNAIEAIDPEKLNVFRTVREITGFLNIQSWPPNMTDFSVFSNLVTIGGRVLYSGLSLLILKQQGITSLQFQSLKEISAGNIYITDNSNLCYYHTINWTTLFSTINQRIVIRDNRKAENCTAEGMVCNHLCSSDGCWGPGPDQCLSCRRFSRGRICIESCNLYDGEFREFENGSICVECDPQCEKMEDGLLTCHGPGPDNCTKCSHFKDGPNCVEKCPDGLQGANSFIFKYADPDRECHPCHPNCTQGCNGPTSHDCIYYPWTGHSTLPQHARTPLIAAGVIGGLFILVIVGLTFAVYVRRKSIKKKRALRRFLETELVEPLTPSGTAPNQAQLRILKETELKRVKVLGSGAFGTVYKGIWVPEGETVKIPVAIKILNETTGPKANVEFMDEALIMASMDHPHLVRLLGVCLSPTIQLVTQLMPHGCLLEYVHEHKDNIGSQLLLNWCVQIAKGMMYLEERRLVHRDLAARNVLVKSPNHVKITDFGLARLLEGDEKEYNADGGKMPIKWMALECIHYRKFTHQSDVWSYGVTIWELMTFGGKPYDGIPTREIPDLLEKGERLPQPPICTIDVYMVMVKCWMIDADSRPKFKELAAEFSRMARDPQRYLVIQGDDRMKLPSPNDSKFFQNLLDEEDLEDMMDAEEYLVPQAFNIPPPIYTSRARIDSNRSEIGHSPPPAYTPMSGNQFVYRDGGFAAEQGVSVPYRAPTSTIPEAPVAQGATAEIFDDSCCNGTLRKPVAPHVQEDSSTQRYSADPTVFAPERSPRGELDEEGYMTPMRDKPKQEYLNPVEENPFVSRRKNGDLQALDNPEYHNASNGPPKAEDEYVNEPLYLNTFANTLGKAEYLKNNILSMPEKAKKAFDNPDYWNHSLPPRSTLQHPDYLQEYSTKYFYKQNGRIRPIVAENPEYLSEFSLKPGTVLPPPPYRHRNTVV

**Q.** How did the inhibition at 10 µM (ROS1) turn out when `COc1cc(CCOC(=O)/C=C/c2cc(OC)c(O)c(OC)c2)ccc1O` [Compound 8, (E)-4-hydroxy-3-methoxyph-ethyl 3-(4-hydroxy-3,5-dimethoxyphenyl) acrylate] was run?
**A.** 24%

**Q.** What about the inhibition at 10 µM (FGFR1) of the same compound?
**A.** 50%

**Q.** And the inhibition at 10 µM (PDGFRβ)?
**A.** 14%

**Q.** What about the inhibition at 10 µM (EGFR (ERbB1)) of the same compound?
**A.** 7%

**Q.** And the inhibition at 10 µM (KDR (VEGFR2))?
**A.** 20%

**Q.** What about the inhibition at 10 µM (ALK) of the same compound?
**A.** 21%

**Q.** And the inhibition at 10 µM (HER4 (ERbB4))?
**A.** 7%

**Q.** And the inhibition at 10 µM (FLT1 (VEGFR1))?
**A.** 9%

**Q.** What about the inhibition at 10 µM (HER2 (ERbB2)) of the same compound?
**A.** 4%

**Q.** And the inhibition at 10 µM (KIT)?
**A.** -3%

**Q.** And the “Mean inhibition at 10 μM of HVS (%)” value (IGF1R)?
**A.** no observed inhibition

**Q.** What about the inhibition at 10 µM (IGF1R; read-out: Mean inhibition at 10 μM of HVS (%)) of the same compound?
**A.** -5%

**Q.** What about the LDH release [1] of the same compound?
**A.** minimal LDH release

**Q.** And the “FAK, Brk, paxillin and Rac1 phosphorylation (activation)” value ([2]; 72-h treatment)?
**A.** dose-dependently suppressed

**Q.** What about the “HGF-induced phosphorylation and activation of Akt and MAPK” value ([2]; antiproliferative concentrations) of the same compound?
**A.** blocked
